Consider 2 molecules from patent US20240201204A1, “Biomarker and Druggable Target of Neurodegeneration” (University Hospitals Cleveland Medical Center, priority 2020, published 2024).

The subject of series [1] is p300/CBP. Nature of the series: p300/CBP activity after TBI (acetylation of p300/CBP, H2AK5, H3K18; western blot). It counts as in vivo, mouse. The conditions noted are these: vs. TBI+Vehicle. As to the method: (§1) Drug preparation and administration: CGP3466B (Sigma-Aldrich, SML1941) was dissolved in DMSO and then diluted in sterile saline. The final working stock was 0.0014 mg/ml for administering the 0.014 mg/kg dose. Intraperitoneal administration of CGP3466B was initiated 15 min or 24 h after injury, and tissues were harvested 6 h (for SNO-GAPDH, SNO-SIRT1 measurement) or 2 weeks (for ac-tau measurement) later, respectively. Salsalate (AdipoGen, AG-CR1-3574) was dissolved in DMSO and then diluted in sterile PBS. The final working stocks were as follows: 2.5 mg/ml (25 mg/kg dose), 1 mg/ml (10 mg/kg dose), 0.5 mg/ml (5 mg/kg dose). Daily intraperitoneal administration of salsalate was initiated 24 hr after injury and continued throughout behavioral testing. P7C3-A20 and FK866 (Sigma-Aldrich, F8557) were first dissolved in 1 vol of DMSO, followed by addition of 4 vol of Kolliphor and vigorously vortexing. The solution was then diluted with 30 vol of filtered 5% dextrose (pH 7.0). EX527 (Selleckchem, S1541) was dissolved in 1% DMSO+30% polyethylene glycol+1% Tween 80. Daily intraperitoneal administration of P7C3-A20 was initiated 24 hr after poly-traumatic brain injury. EX527 (10 mg/kg) was administer once a day and FK866 was treated twice per day, with the first injection given at the same time as P7C3-A20 (20 mg/kg) and the second injection given 6 h later (LoCoco et al., 2017 eLife). Diflunisal was first dissolved in 1 vol of DMSO, followed by addition of 2 vol of Kolliphor and vigorously vortexing. The solution was then diluted with 7 vol of saline to the appropriate concentration for administration at 25, 50, or 100 mg/kg.
The pressure in the side not containing the mouse was increased to cause membrane rupture at 20 pounds per square inch (PSI), which generates an about 1-2 ms jet airflow of 137.9+/−13.79 kPa that passes through the animal's head. The head remains untethered in a padded holder, while the body is fully shielded by a metal tube. The jet of air produced upon membrane rupture provides a concussive injury, which is followed by acceleration/deceleration of the head and then exposure to the ensuing blast wave within an enclosed space.
(§2) Western blotting: Western blotting was performed as described previously (Min et al., 2010), with the 9AB antibody against acetylated-tau generated in the Gan laboratory. […] Lysates were centrifuged at 170,000 g at 4° C. for 15 min and at 18,000 g at 4° C. for 10 min, after which protein concentrations of supernatants were measured by bicinchoninic acid assay (Thermo Scientific, A53225). […]
On the technique in general: In western blotting, separated proteins are transferred to a membrane and probed.

For series [2] the following is noted: patients with pediatric and adolescent congenital muscular dystrophy; cited from earlier work.
Series [3] concerns C57BL/6J mice. Nature of the series: Foot slip test of motor function after TBI. The conditions noted are these: low-dose salsalate daily IP from 24 h after TBI, vs. TBI+Vehicle. It counts as in vivo, mouse. As to the method: as §1, with “EX527 (10 mg/kg) was administer once a day and FK866 was treated twice per day, with the first injection given at the same time as P7C3-A20 (20 mg/kg) and the second injection given 6 h later (LoCoco et al., 2017 eLife). Diflunisal was first dissolved in 1 vol of DMSO, followed by addition of 2 vol of Kolliphor and vigorously vortexing. The solution was then diluted with 7 vol of saline to the appropriate concentration for administration at 25, 50, or 100 mg/kg.” left out
Foot slip test of motor function: Mice were trained to cross an 80 cm-long beam over two days and then tested on day 16. Video of the mice was recorded and analyzed by observers blind to treatment group.

The subject of series [4] is tau. Put plainly: Tau phosphorylation at S262 after TBI (western blot). The conditions noted are these: salsalate treatment after TBI, vs. Sham-Injury. It counts as in vivo, mouse. As to the method:
Drug preparation and administration: CGP3466B (Sigma-Aldrich, SML1941) was dissolved in DMSO and then diluted in sterile saline. The final working stock was 0.0014 mg/ml for administering the 0.014 mg/kg dose. Intraperitoneal administration of CGP3466B was initiated 15 min or 24 h after injury, and tissues were harvested 6 h (for SNO-GAPDH, SNO-SIRT1 measurement) or 2 weeks (for ac-tau measurement) later, respectively. Salsalate (AdipoGen, AG-CR1-3574) was dissolved in DMSO and then diluted in sterile PBS. The final working stocks were as follows: 2.5 mg/ml (25 mg/kg dose), 1 mg/ml (10 mg/kg dose), 0.5 mg/ml (5 mg/kg dose). Daily intraperitoneal administration of salsalate was initiated 24 hr after injury and continued throughout behavioral testing. P7C3-A20 and FK866 (Sigma-Aldrich, F8557) were first dissolved in 1 vol of DMSO, followed by addition of 4 vol of Kolliphor and vigorously vortexing. The solution was then diluted with 30 vol of filtered 5% dextrose (pH 7.0). […]
as §2

The subject of series [5] is Alzheimer's disease. Nature of the series: Pharmacoepidemiologic cohort analysis (MarketScan Medicare Supplemental database), incidence of AD. It counts as in vivo, human. The text has this: Because ac-tau has been generally reported in the brains of subjects with AD, we evaluated the relationship between salsalate or diflunisal use and incidence of clinically-diagnosed TBI or AD by analyzing 7.23 million U.S. commercially-insured individuals (MarketScan Medicare Supplemental database). We conducted two cohort analyses to evaluate the predicted association, based on individual level of longitudinal patient data and pharmacoepidemiologic methods, as previously established (Cheng et al., 2018). Thus, our two cohorts included: (1) salsalate vs. a matched aspirin population and (2) diflunisal vs. a matched aspirin population (Table 2). For each comparison, we estimated the un-stratified Kaplan-Meier curves and conducted propensity score (PS) stratified (n strata=10) log-rank tests and a Cox regression model after adjusting age, race, sex, and disease comorbidities (including diabetes, hypertension, and coronary artery disease) using a propensity score-matching method (Methods).
Study cohorts. The IBM® MarketScan® Medicare Supplemental Database is one of the first in the U.S. to profile the healthcare experience of retirees with Medicare supplemental insurance paid by employers. The MarketScan Medicare Supplemental Database provides detailed cost, use and outcomes data for healthcare services performed in both inpatient and outpatient settings. For most of the population, the medical claims are linked to outpatient prescription drug claims and person-level enrollment data through the use of unique patient or enrollee identifiers. […] This feature makes the database a robust tool for pharmacoeconomic and outcomes research and helps provide insight into the drug use and spending patterns of older Americans. In this study, the pharmacoepidemiology study utilized the MarketScan Medicare Claims database from 2012 to 2017. The dataset included individual-level diagnosis codes, procedure codes and pharmacy claim data for 7.23 million patients. Pharmacy prescriptions of salsalate, diflunisal, and aspirin were identified by using RxNorm and National Drug Code (NDC).
Outcome measurement. For a subject, a drug episode is defined as from drug initiation to drug discontinuation. Specifically, drug initiation is defined as the first day of drug supply (i.e. 1st prescription date). Drug discontinuation is defined as the last day of drug supply (i.e. last prescription date+days of supply) and without drug supply for the next 60 days. In another word, gaps of less than 60-day of drug supply were allowed within a drug episode. The drug cohort included the first drug episode for each subject. For the final cohorts, demographic variables including age, race, sex and geographical location were collected. […]

`C#CCN(C)CC1=Cc2ccccc2Oc2ccccc21.O=C(O)/C=C\C(=O)O` [CGP3466B]: the “ac-p300/CBP in cerebral cortex” value in series [1] (CGP3466B 0.014 mg/kg, after TBI) is reported as “reduces ac-p300/CBP in cerebral cortex after TBI”. The “safety in Phase 1 clinical trial” value in series [2] is given as “shown safety”.

As for `O=C(Oc1ccccc1C(=O)O)c1ccccc1O` [salsalate], in series [1] (low-dose salsalate after TBI), the “ac-H2AK5 levels in cerebral cortex and hippocampus” value is “significantly reduced levels of ac-H2AK5 and ac-H3K18”; the “ac-H3K18 levels in cerebral cortex and hippocampus” value is “significantly reduced levels of ac-H2AK5 and ac-H3K18”; the “acetylation of p300/CBP” value is “acetylation of p300/CBP was also significantly reduced”. Also, the “post-TBI motor impairment (foot slip assay)” value in series [3] is “protects mice from post-TBI impairments”. The “phosphorylation of tau at S262 in hippocampus” value in series [4] is given as “remains significantly decreased in hippocampus”. In series [5] (excluding patients with type 2 diabetes, hypertension, or coronary artery disease, vs. aspirin), the “incidence of AD, subgroup analysis” value is “associated with decreased incidence of AD”. Moreover, the “hazard ratio [HR], AD” value in series [5] (vs. PS-matched aspirin cohort, Cox regression model, 6 years of follow-up) is reported as 0.57.
